The source of these data is US20240294471A1, “ROS-RESPONSIVE CAPTOPRIL-CINNAMALDEHYDE PRODRUGS AND COMPOSITIONS AND METHODS THEREOF” (The University of Hong Kong, priority 2021, published 2024).

Data set [1] relates to LPS-stimulated Raw 264.7 cells. Briefly: NO generation (nitrite in culture supernatant, Griess reagent). Format: cell-based. The settings on record: Raw264.7 cells, LPS 10 μg/mL, 24 h, dose-dependent, FIG. 2. As to the method: Nitrite levels, an index of cellular NO production, in culture supernatants of Raw 264.7 cells were determined using a modified Griess reagent. Briefly, Raw 264.7 cells were seeded in 24-well plates. After a 24 h incubation, prodrugs were added to the cells at different concentrations and incubated for 1 h, and then the cells were treated with or without LPS (10 μg/mL) for another 24 h. The supernatant was mixed with an equal volume of Griess reagent and incubated at room temperature for 15 min. The absorbance at 540 nm was measured. Three replicate wells were used in this experiment.
Background: The Griess reaction detects nitrite, a stable product of nitric oxide.

Data set [2] deals with LPS-stimulated Raw264.7 cells. Briefly: Protein levels of TNF-α, IL-1β and IL-6 by ELISA. The settings on record: supernatant, 24 h, dose dependent, FIGS. 3A-3C. Type of data set: cell-based. As to the method:
The protein levels of TNF-α, IL-1β and IL-6 were determined by ELISA. Briefly, Raw 264.7 cells were seeded in 24-well plates. After a 24 h incubation, prodrugs were added to the cells at different concentrations and incubated for 1 h, and then the cells were treated with or without LPS (10 μg/mL) for another 24 h. The supernatants were collected for determination of protein levels according to the ELISA kit's instruction. Three replicate wells were used in this experiment.
Background: ELISA stands for enzyme-linked immunosorbent assay.

In a further data set the test system is Raw 264.7 cells. Nature of the data set: Cytotoxicity test (MTT assay). Format: cell-based. The settings on record: Raw264.7 cells, 24 h, with or without LPS (10 μg/mL), tested concentration range, FIG. 1. As for the experimental part:
The effect of the prodrug on the viability of Raw 264.7 cells was determined using the MTT assay. Briefly, Raw 264.7 cells were seeded in 24-well plates. After a 24 h incubation, prodrugs were added to the cells at different concentrations and incubated for 1 h, and then, the cells were treated with or without LPS (10 μg/mL) for another 24 h. Next, 50 μL of MTT solution (5 mg/mL) were added to each well and the cells were incubated for 3 h at 37° C. Then, 1 mL of DMSO were added to dissolve the MTT-formazan crystal. The absorbance at 570 nm and 630 nm were measured. Three replicate wells were used in this experiment.
In general terms: Tetrazolium dyes change colour on reduction, which living cells bring about.

A short description of data set [3]: ROS-responsiveness: HPLC monitoring of CAPT-CA degradation in the presence of H2O2. Type of data set: physicochemical. The settings on record: CAPT-CA 160 μM, H2O2 40 mM. As to the method: HPLC spectra of CAPT, CA, CAPT-CA prodrug, and the degradation of CAPT-CA (160 μM) in the presence of H2O2 (40 mM) for different times were obtained. A C18 column was used. The mobile phase A was acetonitrile containing 0.1% TFA and mobile phase B was water containing 0.1% TFA. The elution procedure was shown as below: 0-5 min: 98% B→98% B; 5-15 min: 98% B→40% B; 15-17 min: 40% B→40% B. The flow rate was 1.5 mL/min. The detection wavelength was 220 nm.
To evaluate the ROS-responsiveness of CAPT-CA, high performance liquid chromatography (HPLC) has been employed to monitor the release of CAPT and CA after incubation of CAPT-CA with a ROS reagent (hydrogen peroxide, H2O2). The retention time of free CAPT, free CA and CAPT-CA was at 10.138 min, 13.275 min, 14.283 min, respectively.

In data set [4] the test system is LPS-stimulated Raw264.7 cells. Nature of the data set: mRNA levels of proinflammatory cytokines by qRT-PCR. Format: cell-based. The settings on record: 24 h, dose dependent, FIGS. 4A-4C. As for the experimental part:
[…] Briefly, Raw 264.7 cells were seeded in 12-well plates. After a 24 h incubation, prodrugs were added to the cells at different concentrations and incubated for 1 h, and then the cells were treated with or without LPS (10 μg/mL) for another 24 h. qRT-PCR experiments were measured according to the manufacturer's instruction. Three replicate wells were used in this experiment.

For `CC(CSC(/C=C/c1ccccc1)SCC(C)C(=O)N1CCCC1C(=O)O)C(=O)N1CCCC1C(=O)O` (stereo not drawn) [CAPT-CA], the “NO generation resulting from LPS stimulation” value in data set [1] is recorded as “significantly suppressed”. Also, in data set [2], the “protein levels of the cytokines (TNF-α, IL-1β, IL-6)” value is listed as “significantly down-regulates”. Also, the “cytotoxicity of the prodrug” value in the data set on Raw 264.7 cells is “minimal”. Also, in data set [3] (4 h), the “prodrug peak in HPLC after incubation with H2O2 (release of free CA and CAPT)” value is given as “prodrug peak decreases”. For the same molecule, the “prodrug peak in HPLC after incubation with H2O2” value in data set [3] (22 h) was “almost disappeared”. Also, the “mRNA levels of the cytokines (TNF-α, IL-6, IL-1β)” value in data set [4] is listed as “significantly down-regulates”.
